Data as given in the CheMixHub viscosity set.
± gives the uncertainty stated by the source.

Experiment: xn = mol fraction of the nth substance listed

CC(=O)CC(C)(C)O + O
Settings | viscosity [mPa·s]
298.15 K, 101 kPa, x1 = 0.017 | 1.261 ± 0.033
298.15 K, 101 kPa, x2 = 0.2547 | 4.143 ± 0.11
298.15 K, 101 kPa, x2 = 0.4824 | 5.758 ± 0.15
298.15 K, 101 kPa, x2 = 0.6067 | 6.204 ± 0.17
298.15 K, 101 kPa, x2 = 0.7114 | 5.917 ± 0.16
298.15 K, 101 kPa, x2 = 0.776 | 5.315 ± 0.14
298.15 K, 101 kPa, x2 = 0.8342 | 4.609 ± 0.12
298.15 K, 101 kPa, x2 = 0.886 | 3.616 ± 0.095
298.15 K, 101 kPa, x2 = 0.9237 | 2.698 ± 0.07
298.15 K, 101 kPa, x2 = 0.9508 | 2.022 ± 0.053
298.15 K, 101 kPa, x2 = 0.9511 | 2.022 ± 0.053
298.15 K, 101 kPa, x2 = 0.9717 | 1.516 ± 0.039
303.15 K, 100 kPa, x2 = 0.1 | 2.81 ± 0.067
303.15 K, 100 kPa, x2 = 0.2 | 3.27 ± 0.079
303.15 K, 100 kPa, x2 = 0.3 | 3.65 ± 0.089
303.15 K, 100 kPa, x2 = 0.4 | 4.15 ± 0.1
303.15 K, 100 kPa, x2 = 0.5 | 4.55 ± 0.11
303.15 K, 100 kPa, x2 = 0.6 | 4.71 ± 0.12
303.15 K, 100 kPa, x2 = 0.7 | 4.57 ± 0.11
303.15 K, 100 kPa, x2 = 0.8 | 4.08 ± 0.096
303.15 K, 100 kPa, x2 = 0.9 | 2.6 ± 0.062
323.15 K, 100 kPa, x2 = 0.1 | 1.69 ± 0.042
323.15 K, 100 kPa, x2 = 0.2 | 1.82 ± 0.047
323.15 K, 100 kPa, x2 = 0.3 | 2.06 ± 0.054
323.15 K, 100 kPa, x2 = 0.4 | 2.1 ± 0.058
323.15 K, 100 kPa, x2 = 0.5 | 2.3 ± 0.063
323.15 K, 100 kPa, x2 = 0.6 | 2.32 ± 0.065
323.15 K, 100 kPa, x2 = 0.7 | 2.31 ± 0.063
323.15 K, 100 kPa, x2 = 0.8 | 2.09 ± 0.057
323.15 K, 100 kPa, x2 = 0.9 | 1.48 ± 0.038

CCC(N)=O + O
298.15 K, 101 kPa
Settings | viscosity [mPa·s]
x1 = 0.003097 | 0.919 ± 0.18
x1 = 0.0145 | 1.025 ± 0.2
x1 = 0.03165 | 1.188 ± 0.24
x1 = 0.06563 | 1.536 ± 0.31
x1 = 0.1487 | 3.03 ± 0.61
x1 = 0.3724 | 5.98 ± 1.2

CCCCCCCCCCCCCC[P+](CCCCCC)(CCCCCC)CCCCCC.c1ccc2[n-]nnc2c1 + O
Settings | viscosity [mPa·s]
298.15 K, 100 kPa, x2 = 0.728 | 181 ± 6

CCCCCCCO + O
Settings | viscosity [mPa·s]
298.15 K, 101 kPa, x2 = 0.28 | 5.5 ± 0.15

CCC[NH2+]CCO.O=C([O-])c1ccccc1O + O
100 kPa, x2 = 0.14
Settings | viscosity [mPa·s]
298 K | 376.1 ± 16
303 K | 261.8 ± 11
313 K | 136.8 ± 5
323 K | 78.08 ± 2.7

CCN(CC)CCO + O
Settings | viscosity [mPa·s]
293.15 K, 101 kPa, x1 = 0.062 | 4.536 ± 0.025
298.15 K, 101 kPa, x1 = 0.062 | 3.689 ± 0.023
298.15 K, 101.33 kPa, x1 = 0.0039 | 0.991 ± 0.025
298.15 K, 101.33 kPa, x1 = 0.008 | 1.104 ± 0.028
298.15 K, 101.33 kPa, x1 = 0.0121 | 1.233 ± 0.03
298.15 K, 101.33 kPa, x1 = 0.0169 | 1.4 ± 0.034
298.15 K, 101.33 kPa, x1 = 0.0261 | 1.752 ± 0.042
298.15 K, 101.33 kPa, x1 = 0.0372 | 2.242 ± 0.053
298.15 K, 101.33 kPa, x1 = 0.0602 | 3.439 ± 0.079
298.15 K, 101.33 kPa, x1 = 0.0909 | 5.404 ± 0.12
298.15 K, 101.33 kPa, x1 = 0.1326 | 8.287 ± 0.17
298.15 K, 101.33 kPa, x1 = 0.1883 | 11.72 ± 0.22
298.15 K, 101.33 kPa, x1 = 0.3136 | 15.25 ± 0.28
298.15 K, 101.33 kPa, x1 = 0.4547 | 14.14 ± 0.26
298.15 K, 101.33 kPa, x1 = 0.5001 | 13.45 ± 0.23
298.15 K, 101.33 kPa, x1 = 0.6638 | 9.491 ± 0.18
298.15 K, 101.33 kPa, x1 = 0.758 | 6.903 ± 0.14
298.15 K, 101.33 kPa, x1 = 0.8765 | 5.478 ± 0.12
298.15 K, 101.33 kPa, x1 = 0.9544 | 4.484 ± 0.1
303.15 K, 100 kPa, x1 = 0.06181 | 3 ± 0.06
303.15 K, 100 kPa, x1 = 0.09296 | 4.51 ± 0.09
303.15 K, 101 kPa, x1 = 0.02641 | 1.53 ± 0.03
303.15 K, 101 kPa, x1 = 0.062 | 3.048 ± 0.021
303.15 K, 101 kPa, x1 = 0.1117 | 5.23 ± 0.11
303.15 K, 101.33 kPa, x1 = 0.0039 | 0.885 ± 0.023
303.15 K, 101.33 kPa, x1 = 0.008 | 0.98 ± 0.025
303.15 K, 101.33 kPa, x1 = 0.0121 | 1.085 ± 0.027
303.15 K, 101.33 kPa, x1 = 0.0169 | 1.219 ± 0.03
303.15 K, 101.33 kPa, x1 = 0.0261 | 1.495 ± 0.036
303.15 K, 101.33 kPa, x1 = 0.0372 | 1.887 ± 0.045
303.15 K, 101.33 kPa, x1 = 0.0602 | 2.82 ± 0.065
303.15 K, 101.33 kPa, x1 = 0.0909 | 4.364 ± 0.098
303.15 K, 101.33 kPa, x1 = 0.1326 | 6.361 ± 0.13
303.15 K, 101.33 kPa, x1 = 0.1883 | 8.984 ± 0.18
303.15 K, 101.33 kPa, x1 = 0.3789 | 11.36 ± 0.22
303.15 K, 101.33 kPa, x1 = 0.5883 | 8.745 ± 0.17
303.15 K, 101.33 kPa, x1 = 0.6638 | 7.615 ± 0.15
303.15 K, 101.33 kPa, x1 = 0.758 | 5.577 ± 0.12
303.15 K, 101.33 kPa, x1 = 0.8765 | 4.459 ± 0.1
303.15 K, 101.33 kPa, x1 = 0.9544 | 3.65 ± 0.083
308.15 K, 101 kPa, x1 = 0.062 | 2.552 ± 0.02
313.15 K, 100 kPa, x1 = 0.06181 | 2.13 ± 0.04
313.15 K, 100 kPa, x1 = 0.09296 | 3.08 ± 0.06
313.15 K, 101 kPa, x1 = 0.02641 | 1.18 ± 0.03
313.15 K, 101 kPa, x1 = 0.06181 | 2.07 ± 0.04
313.15 K, 101 kPa, x1 = 0.062 | 2.165 ± 0.019
313.15 K, 101 kPa, x1 = 0.1117 | 3.5 ± 0.07
313.15 K, 101.33 kPa, x1 = 0.0039 | 0.723 ± 0.019
313.15 K, 101.33 kPa, x1 = 0.008 | 0.791 ± 0.021
313.15 K, 101.33 kPa, x1 = 0.0121 | 0.866 ± 0.022
313.15 K, 101.33 kPa, x1 = 0.0169 | 0.958 ± 0.024
313.15 K, 101.33 kPa, x1 = 0.0261 | 1.149 ± 0.028
313.15 K, 101.33 kPa, x1 = 0.0372 | 1.412 ± 0.034
313.15 K, 101.33 kPa, x1 = 0.0602 | 2.016 ± 0.048
313.15 K, 101.33 kPa, x1 = 0.0909 | 2.912 ± 0.067
313.15 K, 101.33 kPa, x1 = 0.1326 | 4.179 ± 0.094
313.15 K, 101.33 kPa, x1 = 0.1883 | 5.497 ± 0.12
313.15 K, 101.33 kPa, x1 = 0.2629 | 6.627 ± 0.14
313.15 K, 101.33 kPa, x1 = 0.3136 | 7.004 ± 0.14
313.15 K, 101.33 kPa, x1 = 0.3789 | 7.054 ± 0.14
313.15 K, 101.33 kPa, x1 = 0.4547 | 6.685 ± 0.14
313.15 K, 101.33 kPa, x1 = 0.6638 | 4.668 ± 0.11
313.15 K, 101.33 kPa, x1 = 0.758 | 3.694 ± 0.084
313.15 K, 101.33 kPa, x1 = 0.8765 | 3.059 ± 0.07
313.15 K, 101.33 kPa, x1 = 0.9544 | 2.639 ± 0.061
318.15 K, 101 kPa, x1 = 0.062 | 1.86 ± 0.019
323.15 K, 100 kPa, x1 = 0.06181 | 1.6 ± 0.03
323.15 K, 101 kPa, x1 = 0.02641 | 0.93 ± 0.02
323.15 K, 101 kPa, x1 = 0.06181 | 1.55 ± 0.03
323.15 K, 101 kPa, x1 = 0.062 | 1.617 ± 0.018
323.15 K, 101 kPa, x1 = 0.1117 | 2.51 ± 0.05

CC[C@@H](CO)NCCN[C@@H](CC)CO.Cl.Cl + O
298.15 K, 100 kPa
Settings | viscosity [mPa·s]
x1 = 9.47e-06 | 0.8977 ± 0.019
x1 = 1.925e-05 | 0.8983 ± 0.019
x1 = 3.721e-05 | 0.8987 ± 0.019
x1 = 9.087e-05 | 0.9011 ± 0.019
x1 = 0.0001804 | 0.9029 ± 0.019
x1 = 0.000898 | 0.9213 ± 0.019
x1 = 0.001796 | 0.9443 ± 0.02

CCN(CC)CCO + O=C1CCCCC1
viscosity [mPa·s], 101 kPa
Settings | 298.15 K | 308.15 K | 318.15 K
x2 = 0.0501 | 3.267 ± 0.02 | 2.46 ± 0.015 | 1.885 ± 0.012
x2 = 0.1004 | 3.133 ± 0.019 | 2.336 ± 0.015 | 1.766 ± 0.011
x2 = 0.15 | 3.002 ± 0.018 | 2.228 ± 0.014 | 1.663 ± 0.011
x2 = 0.2 | 2.878 ± 0.018 | 2.126 ± 0.013 | 1.564 ± 0.01
x2 = 0.3002 | 2.662 ± 0.016 | 1.939 ± 0.012 | 1.417 ± 0.009
x2 = 0.4 | 2.49 ± 0.015 | 1.799 ± 0.011 | 1.309 ± 0.009
x2 = 0.5 | 2.344 ± 0.015 | 1.703 ± 0.011 | 1.24 ± 0.008
x2 = 0.5999 | 2.234 ± 0.014 | 1.647 ± 0.01 | 1.224 ± 0.008
x2 = 0.6503 | 2.191 ± 0.014 | 1.639 ± 0.01 | 1.229 ± 0.008
x2 = 0.6995 | 2.159 ± 0.013 | 1.639 ± 0.01 | 1.249 ± 0.008
x2 = 0.7997 | 2.127 ± 0.013 | 1.663 ± 0.011 | 1.306 ± 0.008
x2 = 0.8997 | 2.121 ± 0.013 | 1.717 ± 0.011 | 1.389 ± 0.009
x2 = 0.9497 | 2.133 ± 0.013 | 1.747 ± 0.011 | 1.443 ± 0.009

OC1CCCCC1 + O=C1CCCCC1
298.15 K, 101.3 kPa
Settings | viscosity [mPa·s]
x2 = 0.2 | 13.85 ± 0.18
x2 = 0.4 | 6.29 ± 0.07
x2 = 0.51 | 4.54 ± 0.05
x2 = 0.6 | 3.54 ± 0.04
x2 = 0.8 | 2.38 ± 0.02

CCCCCCCCCCCCCC[P+](CCCCCC)(CCCCCC)CCCCCC.c1ccc2[n-]nnc2c1 + O=C=O
Settings | viscosity [mPa·s]
298.15 K, 100 kPa, x2 = 0.19 | 443 ± 18

CCCCN(CCC#N)CCCC + O=S=O
303.15 K, 100 kPa
Settings | viscosity [mPa·s]
x2 = 0.17 | 4.1
x2 = 0.34 | 8
x2 = 0.45 | 13.8
